Each block holds one compound with its values, some of them ahead of it.
Legend:
human QPCTL = human QPCTL (Homo sapiens, UniProt Q9NXS2); details: cited from earlier work
[1] = tested on: HAP1, RKO, A375, A549 and DLD1 cells; details: PBD150 1000 microM, 72 hours, medium refreshed every 24 hours
Protocol: (§1) Surface levels of CD47 were assessed by performing immunohistochemical staining cells with fluorochrome labelled antibodies directed against CD47 (clones CC2C6, 2D3, B6H12., see Table 1) at a dilution of 1:50 in PBS containing 0.5% w/v BSA (Sigma) and 0.2% w/v sodium azide (Sigma) (“FACS buffer”) for 30 minutes, at 4° C., protected from light. SIRPα binding to CD47 was assessed by incubating cells with recombinant extracellular domain of human SIRPα fused to human IgG ((SIRPα-Fc); Recombinant Human SIRP alpha/CD172a Fc Chimera Protein see Table 1) at a dilution of 1:50 in FACS buffer for 30 minutes, at 4° C., protected from light. After 1 wash with FACS buffer to remove unbound SIRPα-Fc, cells were immunostained with a fluorochrome labelled antibody against human IgG (HP6017, see Table 1) for 30 minutes, at 4° C., protected from light. After 2 washes with FACS buffer to remove unbound antibody, immunohistochemical staining intensity or binding intensity was analyzed on an LSRII (BD Bioscience).
Next, HAP1, RKO, A375, A549 and DLD1 cells were treated for 72 hours with PBD150 (1000 microM) or vehicle and medium was refreshed every 24 hours.

HAP1 cells = test: Small molecule inhibition of glutaminyl cyclase: anti-CD47 clone CC2C6 binding, flow cytometry; assay type: cell-based, human
Protocol: as §1

recombinant human isoQC = target: T1, recombinant human isoQC (Homo sapiens, UniProt Q9NXS2); test: IsoQC assay (coupled H-Gln-AMC / pGAPase fluorescence assay); assay type: biochemical; details: 10 μM H-Gln-AMC, 1 hour at 37° C., maximum and ten- and hundredfold lower concentrations
T1 construct: enzymatically active region of human isoQC (S53-L382, Huang et al., JBC, 286, 12439-12449, 2011); GST with enterokinase site (N, cleaved yes); made in house; host or cells: E. coli, pET41(+) vector
Description: The Golgi luminal, enzymatically active region of human isoQC (S53-L382, Huang et al., JBC, 286, 12439-12449, 2011) was obtained by expression in E. coli of an N-terminally GST-Enterokinase, C-terminally 6× His tagged construct (“6× His” disclosed as SEQ ID NO: 15) in the pET41(+) vector and subsequent purification and enterokinase digestion. Absence of pyroglutamylating activity in an enzymatic dead variant that was cloned, expressed and purified in parallel ruled out that the purification strategy isolates any endogenously present pyroglutamylating activity.
Inhibition of isoQC activity was assessed by incubating 30 μl 50 mM Tris pH8.0 solutions containing 10 μM H-Gln-AMC (Bachem cat.no. 4003647.0100, dissolved in 25 mM HEPES), 1% DMSO and 750 pg/μl recombinant isoQC in the presence or absence of inhibitor for 1 hour at 37° C. A 5-minute incubation at 98° C. followed to stop the reaction and inactivate the enzyme. Next, 25 μl of the reaction was transferred to a 384-well plate containing 25 μl pGAPase enzyme (1:200 diluted in 50 mM Tris pH8.0, 10 mM Dithiothreitol (DTT), enzyme obtained from Qiagen, cat. no. 34342) and incubated for 10 minutes at 37° C. before reading the fluorescence using a SpectraMax Id3 platereader with excitation wavenlength set at 380 nm and emission at 450 nm. Readings were corrected by subtracting background signal from a control well containing no isoQC enzyme and subsequently normalized by dividing through the signal of a well containing enzyme but no inhibitor.

[2] = tested on: CD47 pyroglutamylation in HAP1 cells; test: QPCTL inhibitor assay: CD47 pyroglutamylation (CC2C6 / 2D3 staining); assay type: cell-based, human; details: 48 hours, 10-fold dilutions, maximum 500 μM
Protocol: An equal volume of HAP1 (200,000/well), A375 (50,000/well) or RKO (100,000/well) cells was added and QPCTL and CD47 knockout cells were taken along in control wells.
After 48 hours incubation at 37 degrees, 5% CO2, cells were washed once with PBS before releasing with 100 μl TrypIE dissociation reagent per well and transfer to V-bottom 96-well plates (Greiner Bio-One) pre-filled with 100 μl FACS buffer (10% FCS/PBS). Cells were spun 3′ at 3000 rpm, washed once with FACS buffer and again spun 3′ at 3000 rpm. Next, cells were incubated for 2 hours at 4 degrees with a mix of 1:500 FITC-conjugated anti-human CD47 clone 2D3 and 1:500 Alexa647-conjugated anti-human CD47 clone CC2C6 for the pyroglutamylation assays. Alternatively, cells were incubated with 50 μl 1:50 recombinant SIRPα-human Fc fusion protein in FACS buffer for the SIRPα assays. For the SIRPα assays, two wash steps followed by spinning 3′ at 3000 rpm and resuspending the cells in FACS buffer before spinning a final time and resuspending and incubating the pellet for 1 hour at 4 degrees in 100 μl 1:100 APC-conjugated rabbit-anti-human antibody. Cells of both assay were spun down and washed twice with FACS buffer to remove unbound antibody. Cells were again spun down and taken up in 300 μl FACS buffer before analyzed on a FACSAria III using FACS Diva software (BS Biosciences). The median fluorescence intensity (MFI) of each sample was linearly transformed to scale between the MFIs of wildtype and CD47 knockout cells in case of the 2D3 antibody and the wildtype and QPCTL knockout cells in case of the CC2C6 antibody.

[3] = Phase 1 study with 200 healthy young and elderly volunteers; cited from earlier work
QPCT and QPCTL = details: Phase 1 study with 200 healthy young and elderly volunteers; cited from earlier work
[4] = tested on: A375, A431, Raji, A549, DLD1, HAP1, RKO and SKBR3 cells; test: SEN177 and PQ912 treatment, cell surface binding of hSIRPα-Fc and anti-CD47 antibodies, flow cytometry; assay type: cell-based, human; set-up: dose or concentration left out as unconfirmed; details: refreshed every day, four days
Protocol: (§2) After indicated antibody stainings, cells were washed with FACS buffer to remove unbound antibody and DAPI was added to allow dead cell exclusion and samples were analyzed on an LSRII or LSRFortessa (BD Bioscience).
(§3) DMSO or inhibitor was refreshed every day and after four days, cells were analyzed by flow cytometry.

[5] = tested on: B16F10 melanoma cells and Ba/F3-Her2 pro-B cells; test: SEN177 treatment of murine cells, mSIRPα-Fc and αmCD47-MIAP301 binding, flow cytometry; assay type: cell-based; details: SEN177, both cell lines
Protocol: as §2, §3

[6] = tested on: pyroglutamate-modified CD47 in A375 melanoma cells; test: Analysis of αCD47-CC2C6 / αCD47-B6H12 immunoprecipitates of HA-tagged CD47; assay type: cell-based, human; details: untreated versus SEN177-treated cells, 10 μM SEN177 for 16 h
Protocol: At the day of analysis, cells were starved in methionine- and cysteine-free medium for 1 h at 37° C. Subsequently, cells were pulse-labelled with 0.75 mCi/600 μL [^35S]Cys/[^35S]Met (PerkinElmer) for the indicated time period. Cells were washed with PBS to remove residual [^35S]Cys/[^35S]Met and then cultured in regular medium with 1 mM ‘cold’ methionine and cysteine for the indicated time period. Cells were lysed and [^35S]Cys/[^35S] incorporation was measured via TCA precipitation of aliquots of lysates on 3 MM Whatman paper and counting in a Perkin Elmer LSC 2800 ultima gold scintillation counter. Next, for pre-clearing and IP purposes, purified mouse IgG1 kappa isotype control (Biolegend, 400102), anti-human CD47 antibody B6H12.2 (Novus, NBP2-31106), and purified anti-human CD47 antibody CC2C6 (Biolegend, 323102) was bound to protein-G-coated Dynabeads (ThermoFisher Scientific) according to manufacturer's instructions. […] Next, immunoprecipitates were heated at 50° C. for 10 min with 2× Laemmli buffer and analyzed using a Novex NuPAGE Gel Electrophoresis System (Thermo Fisher Scientific). Gels were treated with 1 M Na salicylate pH 5.6 before drying and then analyzed on Fujifilm BAS-MP phosphor imager screens 4° C. Screens were analyzed on a lasser scanner Typhoon FLA 9500.

[7] = tested on: QPCTL-deficient lung cancer (A549) and epidermoid carcinoma (A431) cells; test: SEN177 treatment of QPCTL-deficient cells, SIRPα binding by flow cytometry; assay type: cell-based, human
Protocol: as §2, §3

[8] = tested on: short-term cultures of melanoma xenografts; test: SEN177 treatment of short-term melanoma PDX cell lines, FACS binding; assay type: cell-based, human; details: 10 μM SEN177 for 4 days, six cultures
Description: Cell lines: Short-term cell lines from primary melanoma patient-derived xenografts (PDX) were generated as described (Kemper et al., EMBO Mol. Med. 7, 1104-1118, 2015) and were a gift from D. Peeper and K. Kemper. […]

Ba/F3-Her2 cells [9] = test: ADCC of 51Cr-labeled Ba/F3-Her2 target cells by human effector cells; assay type: cell-based, murine; details: human neutrophils, with anti-Her2, 10 μM SEN177, 4 h 51Cr-release
Protocol: (§4) Briefly, 1×10^6 target cells were labelled with 100 μCi (3.7 MBq) ^51Cr for 2 h. After extensive washing, cell numbers were adjusted to 1×10^6/mL. The polymorphonuclear leukocyte (PMN) fraction from peripheral blood of healthy donors (UMC Utrecht, Utrecht) was isolated by Ficoll/Histopaque separation (GE Healthcare; Sigma-Aldrich). Effector cells and target cells were added to round-bottom microtiter plates (Corning Incorporated) (E:T ratio=40:1), in the presence of the indicated concentration of a Her2 antibody. After 4 h incubation at 37° C., ^51Cr release was measured. Percentage specific lysis was calculated using the following formula: ((experimental cpm—basal cpm)/(maximal cpm—basal cpm))×100, with maximal lysis determined in the presence of 3% triton and basal lysis determined in the absence of antibody and effector cells. […] All experiments were performed in triplicate.

Ba/F3-Her2 cells [10] = test: ADCC of 51Cr-labeled Ba/F3-Her2 target cells by mouse effector cells; assay type: cell-based; details: murine immune cells isolated from whole blood as effector cells, anti-Her2 IgA1
Protocol: as §4
In brief, to obtain mouse effector cells, blood was collected from pegylated granulocyte colony-stimulating factor (G-CSF)-stimulated human FcaRl transgenic Balb/c mice from the retro-orbital plexus into Li-heparin tubes. Erythrocytes were lysed by incubation in water for […], and total leukocytes were resuspended in medium (half the volume of the original blood volume). 50 μL of total leukocytes, containing ˜70% PMNs, were added per well.

T1 sequence (Q9NXS2 53-382): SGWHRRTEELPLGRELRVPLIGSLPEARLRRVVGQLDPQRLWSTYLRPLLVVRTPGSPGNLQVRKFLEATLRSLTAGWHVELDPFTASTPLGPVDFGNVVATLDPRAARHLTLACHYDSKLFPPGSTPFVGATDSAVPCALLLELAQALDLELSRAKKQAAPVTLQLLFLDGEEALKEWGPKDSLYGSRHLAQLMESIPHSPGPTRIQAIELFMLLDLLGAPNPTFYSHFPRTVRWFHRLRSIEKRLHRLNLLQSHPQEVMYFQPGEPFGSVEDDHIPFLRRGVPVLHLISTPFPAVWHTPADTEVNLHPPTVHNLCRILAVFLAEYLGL
Chain of human QPCTL (Q9NXS2 whole entry): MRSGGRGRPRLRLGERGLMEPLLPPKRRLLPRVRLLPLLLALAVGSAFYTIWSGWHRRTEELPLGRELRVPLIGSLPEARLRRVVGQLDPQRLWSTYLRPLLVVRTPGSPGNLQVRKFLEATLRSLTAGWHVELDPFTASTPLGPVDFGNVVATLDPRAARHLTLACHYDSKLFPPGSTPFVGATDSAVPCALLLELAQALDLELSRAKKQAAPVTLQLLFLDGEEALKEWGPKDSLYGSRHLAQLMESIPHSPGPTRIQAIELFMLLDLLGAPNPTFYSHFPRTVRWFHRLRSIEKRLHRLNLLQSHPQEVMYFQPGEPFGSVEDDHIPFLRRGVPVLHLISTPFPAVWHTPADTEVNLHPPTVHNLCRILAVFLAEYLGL

Structure (SMILES): COc1ccc(NC(=S)NCCCn2ccnc2)cc1OC [PBD150]
- Ki (human QPCTL): 60 nM
- 2D3 binding [1]: unchanged
- CC2C6 binding [1]: decreased
- SIRPα-Fc binding [1]: decreased
- CC2C6 binding after withdrawal (HAP1 cells; HAP1 cells subsequently cultured 48 hrs without PBD150): restored to normal levels
- CC2C6 bound to the surface (HAP1 cells; HAP1 cells, 72 hours, PBD150 1000 microM): decreased

Structure (SMILES): CCCOc1ccc([C@H]2CNC(=O)N2c2ccc3[nH]cnc3c2)cc1 [PQ912, (S)-1-(1H-benzo[d]imidazole-5-yl)-5-(4-propoxyphenyl)imidazolidin-2-one]
- safety and tolerability [3]: safe and well-tolerated
- level of QPCT and QPCTL inhibition (QPCT and QPCTL): high level

Structure (SMILES): Cn1cnnc1C1CCN(c2ncccc2-c2ccc(F)nc2)CC1 [SEN177]
- CD47 surface levels [4]: unaffected
- SIRPα-Fc staining ([4]; 8 out of 8 cell lines tested, same extent as in QPCTL deficient cells): reduced
- binding of SIRPα (mSIRPα-Fc) [5]: reduced
- total CD47 surface levels [5]: without altering
- pyroglutamate-modified CD47 [6]: near-complete inhibition
- SIRPα binding [7]: did not further reduce
- CD47 protein levels [8]: unaltered
- Binding of SIRPα ([8]; versus untreated cells): significantly decreased
- neutrophil-mediated lysis of tumor cells (Ba/F3-Her2 cells [9]): synergized
- lysis of tumor cells by murine immune cells (Ba/F3-Her2 cells [10]): same effects

The next lines start with results.

- isoQC activity (recombinant human isoQC): did show some activity
Structure (SMILES): Cc1ccc(C2C(c3ccc(O)cc3)=C(O)C(=O)N2CCCn2ccnc2)cc1 (centres unmarked) [compound 000046, 3-Hydroxy-4-(4-hydroxy-phenyl)-1-(3-imidazol-1-yl-propyl)-5-p-tolyl-1,5-dihydro-pyrrol-2-one]
- pE-CD47 signal (antibody clone CC2C6) [2]: did not show convincing reactivity

- isoQC activity (recombinant human isoQC): did show some activity
Structure (SMILES): Cc1ccc(C2C(=S)NC(=O)N2c2ccc3[nH]cnc3c2)c(F)c1F (centres unmarked) [compound 000040, 1-(1H-benzo[d]imidazol-5-yl)-5-(2,3-difluoro-4-methylphenyl)-4-thioxoimidazolidin-2-one]
- pE-CD47 signal (antibody clone CC2C6) [2]: did not show convincing reactivity

- isoQC activity (recombinant human isoQC): did show some activity
Structure (SMILES): O=C(C1=C(O)C(=O)N(c2ccc3[nH]cnc3c2)C1c1ccc(Cl)c(Cl)c1)C1CCCCC1 (centres unmarked) [compound 000015, 1-(1H-Benzoimidazol-5-yl)-4-cyclohexanecarbonyl-5-(3,4-dichloro-phenyl)-3-hydroxy-1,5-dihydro-pyrrol-2-one]
- pE-CD47 signal (antibody clone CC2C6) [2]: did not show convincing reactivity

- isoQC activity (recombinant human isoQC): did show some activity
Structure (SMILES): O=C(C1=C(O)C(=O)N(c2ccc3[nH]cnc3c2)C1c1cccc(F)c1F)c1ccccc1 (centres unmarked) [compound 000033, 1-(1H-benzo[d]imidazol-5-yl)-4-benzoyl-5-(2,3-difluorophenyl)-3-hydroxy-1H-pyrrol-2(5H)-one]
- pE-CD47 signal (antibody clone CC2C6) [2]: did not show convincing reactivity
